How the values were obtained:
[1] = Body weight of mice on selenium diets; type: in vivo, mouse
Text: (§1) Animal Care. Male C57BL/6J mice were housed singly and started on the experimental diets described below immediately after weaning (21 days of age). The mice were maintained in the Shared Aging Rodent Facility at the William S. Middleton Memorial Veterans Administration Medical Center (Madison, Wis.). Temperature and humidity were maintained at constant levels. Room light was controlled to provide 12-hr cycles of light and dark.
Experimental diets were created by Harlan Teklad (Madison, Wis.). Selenium content of the diets was determined by Covance Inc. (Madison, Wis.). […]
Thus, it was an object of the present invention to determine whether compositions and methods of the present invention could alter the expression levels (e.g., mRNA levels) of various genes. One group of genes analyzed were genes classically associated with selenium. As described above, the expression levels of genes were analyzed between mice with and without dietary selenium, or, between mice fed different sources of selenium) (See, e.g., Table 1, below).

[2] = tested on: sprouty homolog 2 gene (Spry2); test: Microarray gene expression, mouse intestine: Spry2; type: in vivo; conditions: Example 7 (intestine); diet 1 ppm Se, 100 days; relative to Se-deficient controls
Text: as §1
(§2) Experimental diets were created by Harlan Teklad (Madison, Wis.). Selenium content of the diets was determined by Covance Inc. (Madison, Wis.). Five (5) animals were included in each of the following treatment groups: a diet deficient in selenium (SD); a diet supplemented with selenomethionine (SM, obtained from Sigma,St. Louis, Mo.) such that the final selenium content of the diet was one (1) part per million; a diet supplemented with sodium selenite (SS, Sigma) such that the final concentration of selenium in this diet was one (1) part per million; or a diet supplemented with the yeast selenium SEL-PLEX (SP, Alltech, Lexington, Ky.), such that the final concentration of selenium in this diet was one (1) part per million. SEL-PLEX. […]
(§3) Tissue sample preparation and microarray analysis. […] For intestinal expression studies, the intestine was flushed twice with saline solution and small intestine was measured and divided in three equal segments. […]

SelR (Selenoprotein X1) = test: Microarray gene expression, mouse intestine: SelR; type: in vivo; conditions: diet 1 ppm Se, 100 days, vs selenium-deficient diet, p<0.01 Sod-sel, p<0.05 SEL-PLEX
Text: as §1, §2, §3

CORS-26 = test: Microarray gene expression, mouse cerebral cortex: CORS-26; type: in vivo; conditions: Example 10 (cerebral cortex); diet 1 ppm Se, 100 days; vs selenium-deficient diet
Text: as §1, §2, §3

Glyoxalase 1 (Glo1) = test: Microarray gene expression, mouse intestine: Glo1; type: in vivo; conditions: Example 4 (intestine); diet 1 ppm Se, 100 days; vs selenium-deficient diet; p<0.01 for SEL-PLEX
Text: as §1, §2, §3

[3] = tested on: LIM homeobox protein 8 gene (Lhx8); test: Microarray gene expression, mouse intestine: Lhx8; type: in vivo; conditions: Example 5 (intestine); diet 1 ppm Se, 100 days; vs Se-deficient subjects; p<0.01 for SEL-PLEX
Text: as §1, §2, §3

[4] = tested on: Complement component 1, q subcomponent, gamma polypeptide, C1qg; test: Microarray gene expression, mouse cerebral cortex: C1qg; type: in vivo; conditions: diet 1 ppm Se, 100 days, vs selenium-deficient diet, negative = down-regulated, * p<0.01
Text: as §1, §2, §3

Neurogenin 3 (Neurog3) = test: Microarray gene expression, mouse intestine: Neurog3; type: in vivo; conditions: Example 6 (intestine); diet 1 ppm Se, 100 days; vs selenium-deficient diet
Text: as §1, §2, §3

[5] = tested on: Type 1 iodothyronine deiodinase; test: Microarray gene expression, mouse intestine: Type 1 iodothyronine deiodinase; type: in vivo; conditions: diet 1 ppm Se, 100 days, vs selenium-deficient diet
Text: as §1, §2, §3

[6] = tested on: Growth arrest and DNA-damage-inducible 45 gamma (Gadd45g); test: Microarray gene expression, mouse intestine: Gadd45g; type: in vivo; conditions: diet 1 ppm Se, 100 days, vs selenium-deficient diet, negative = down-regulated
Text: as §1, §2, §3

[7] = tested on: type II iodothyronine deiodinase (Dio2); test: Microarray gene expression, mouse intestine: Dio2; type: in vivo; conditions: Example 4 (intestine); diet 1 ppm Se, 100 days; vs selenium-deficient diet
Text: as §1, §2, §3

Selenoprotein W (SelW) = test: Microarray gene expression, mouse intestine: SelW; type: in vivo; conditions: diet 1 ppm Se, 100 days, vs selenium-deficient diet
Text: as §1, §2, §3

[8] = tested on: transforming growth factor beta 2 (TGF-β2); test: Microarray gene expression, mouse intestine: TGF-β2; type: in vivo; conditions: Example 5 (intestine); diet 1 ppm Se, 100 days; compared to controls
Text: as §1, §2, §3

selenoprotein N1 (Sepn1) = test: Microarray gene expression, mouse intestine: Sepn1; type: in vivo; conditions: diet 1 ppm Se, 100 days, vs selenium-deficient diet, p<0.02 for SEL-PLEX
Text: as §1, §2, §3

[9] = Chick brain Se concentration at day 14 (offspring of treated hens); type: in vivo, chicks (offspring of white-egg-laying hens); conditions: chicks of hens fed 0.3 ppm Se; chicks grown 14 days on Se deficient diet; pooled brains; basal 786 ppb
Procedure: (§4) Compositions and methods of the present invention were utilized to evaluate the effects of various Se sources on the accumulation of brain Se concentrations in hens and their offspring.
(§5) The study was conducted at the Coldstream Research Facility from Jun. 28, 2004 until Nov. 16, 2004. Six dietary treatments were fed to a total of 48 hens (r=8) that were bred on three consecutive days starting on Sep. 16, 2004.
(§6) The dietary treatments were as follows: Basal (no added Se) Selenite (0.3 ppm) SEL-PLEX (0.3 ppm) Tepsel (0.3 ppm) Se 2000 (0.3 ppm) Selenosource (0.3 ppm)
(§7) Chicks that hatched were divided into two groups. Half of the chicks were killed for brain collection and the remaining chicks were allowed to grow for 14 days on a Se deficient diet, at which time they were terminated for brain collection. Hen brains were analyzed for Se content individually, whereas the chick brains were homogenized and pooled because of small sample size.

[10] = Hen brain Se concentration after dietary selenium sources; type: in vivo, White-Egg-Laying Hens; conditions: 0.3 ppm Se in hen diet; basal diet 870 ppb; Selenosource one sample only
Procedure: as §4, §5, §6, §7

[11] = tested on: Glutathione S-transferase, alpha 3 (Gsta3); test: Microarray gene expression, mouse intestine: Gsta3; type: in vivo; conditions: diet 1 ppm Se, 100 days, vs Se-deficient diets, negative = down-regulated, NS = not significant
Text: as §1, §2, §3

[12] = tested on: Glutathione S-transferase, mu3 (Gstm3); test: Microarray gene expression, mouse intestine: Gstm3; type: in vivo; conditions: diet 1 ppm Se, 100 days, vs Se-deficient diets, negative = down-regulated, NS = not significant
Text: as §1, §2, §3

Cathepsin Z = test: Microarray gene expression, mouse cerebral cortex: Cathepsin Z; type: in vivo; conditions: diet 1 ppm Se, 100 days, relative to Se-deficient mice, negative = down-regulated, * significant
Text: as §1, §2, §3

[13] = tested on: Glutathione S-transferase, theta 2 (Gstt2); test: Microarray gene expression, mouse intestine: Gstt2; type: in vivo; conditions: diet 1 ppm Se, 100 days, vs Se-deficient diets, negative = down-regulated, NS = not significant
Text: as §1, §2, §3

Gst zeta 1 (Gstz1) = test: Microarray gene expression, mouse brain: Gstz1; type: in vivo; conditions: diet 1 ppm Se, 100 days, relative to Se-deficient animals, negative = down-regulated, * significant
Text: as §1, §2, §3

[14] = tested on: Glutathione S-transferase, mu1 (Gstm1); test: Microarray gene expression, mouse intestine: Gstm1; type: in vivo; conditions: diet 1 ppm Se, 100 days, vs Se-deficient diets, negative = down-regulated, NS = not significant
Text: as §1, §2, §3

calpain-5 = test: Expression level of calpain genes after selenium administration; type: in vivo; conditions: tissue not stated; + up, − down; * not explained at this place
Procedure: Compositions and methods of the present invention were analyzed to determine if they were capable of altering the expression levels of calpain genes. Compositions comprising various forms of selenium (e.g., SeM, Sod-sel, and SEL-PLEX) were administered to subjects and the expression levels of calpain genes monitored. The expression level of calpain-5 was altered by treatment in the following ways: free selenomethionine (SM) +1.32*, Sod-sel −1.07, SEL-PLEX −1.44*.

[15] = tested on: Glutathione S-transferase, mu2 (Gstm2); test: Microarray gene expression, mouse intestine: Gstm2; type: in vivo; conditions: diet 1 ppm Se, 100 days, vs Se-deficient diets, negative = down-regulated, NS = not significant
Text: as §1, §2, §3

[16] = tested on: Thioredoxin Reductase 1 gene; test: Microarray gene expression, mouse intestine: Thioredoxin Reductase 1; type: in vivo; conditions: diet 1 ppm Se, 100 days, vs selenium-deficient diet, all p <0.01
Text: as §1, §2, §3

Compound: C[Se]CC[C@H](N)C(=O)O [SeM, selenomethionine]
- Body weights of mice ([1]; mouse, in vivo): No significant differences
- Fold reduction in Spry2 gene expression [2]: no alteration
- Fold upregulation of SelR gene expression (SelR (Selenoprotein X1)): not significantly affected
- Fold reduction in expression of CORS-26 (CORS-26): no alteration
- Fold reduction of Glo1 expression (Glyoxalase 1 (Glo1)): not significantly affected
- Fold upregulation of Lhx8 expression [3]: not significantly different
- FC (fold change) of C1qg expression [4]: 1.0 fold
- Fold upregulation of Neurog3 expression (Neurogenin 3 (Neurog3)): no significant alteration
- Fold increase in expression level of Type 1 iodothyronine deiodinase [5]: 2.0 fold
- FC (fold change) of Gadd45g expression [6]: −1.5 (p < 0.05) fold
- Fold down-regulation of Dio2 expression [7]: no ability to alter
- Fold upregulation of Selenoprotein W (SelW) expression (Selenoprotein W (SelW)): not significantly altered
- Fold upregulation of TGF-β2 expression [8]: not altered
- Fold increase of selenoprotein N1 (Sepn1) gene expression (selenoprotein N1 (Sepn1)): not significantly affected

Compound: O=[Se](O)O [Selenite]
- Chick Brain Se Concentration at day 14 [9]: 784 ppb
- Hen Brain Se Concentration [10]: 850 ppb

Compound: O=[Se](O)O [Sod-sel, sodium selenite]
- FC (fold change) of Gsta3 expression [11]: −2.3 fold
- FC (fold change) of Gstm3 expression [12]: −2.7 fold
- FC (fold change) of Cathepsin Z expression (Cathepsin Z): −1.30* fold
- Body weights of mice ([1]; compared among selenium-deficient, Se-meth, Sod-sel and SEL-PLEX diets (FIG. 1)): No significant differences
- FC (fold change) of Gstt2 expression [13]: −1.3 fold
- Fold upregulation of SelR gene expression (SelR (Selenoprotein X1)): 1.3 fold
- FC (fold change) of Gstz1 expression in brain (Gst zeta 1 (Gstz1)): −1.3 fold
- FC (fold change) of Gstm1 expression [14]: −2.4 fold
- Fold increase in expression level of Type 1 iodothyronine deiodinase [5]: 2.8 fold
- FC (fold change) of Gadd45g expression [6]: −2.0 (p < 0.01) fold
- Fold upregulation of Selenoprotein W (SelW) expression (Selenoprotein W (SelW)): 5.1 fold
- Alteration of expression level of calpain-5 (calpain-5): −1.07
- FC (fold change) of Gstm2 expression [15]: −2.1 fold
- Fold increase in expression of the Thioredoxin Reductase 1 gene [16]: 1.7 fold

— patent US20110038889A1, “METHODS AND COMPOSITIONS FOR ALTERING CELL FUNCTION” (ALLTECH, INC., priority 2005, published 2011)
